Assay results reported in US10934274B2, “Quinoline derivatives as TAM RTK inhibitors” (Qurient Co., Ltd., priority 2015, dated 2021).

How the values were obtained:
Mer = molecular target: T1, Mer (Homo sapiens, UniProt Q12866); experiment: LanthaScreen Eu kinase binding assay, Mer; details: Tracer 236
T1 construct: purchased Life Technologies
T1 sequence (Q12866 21-999): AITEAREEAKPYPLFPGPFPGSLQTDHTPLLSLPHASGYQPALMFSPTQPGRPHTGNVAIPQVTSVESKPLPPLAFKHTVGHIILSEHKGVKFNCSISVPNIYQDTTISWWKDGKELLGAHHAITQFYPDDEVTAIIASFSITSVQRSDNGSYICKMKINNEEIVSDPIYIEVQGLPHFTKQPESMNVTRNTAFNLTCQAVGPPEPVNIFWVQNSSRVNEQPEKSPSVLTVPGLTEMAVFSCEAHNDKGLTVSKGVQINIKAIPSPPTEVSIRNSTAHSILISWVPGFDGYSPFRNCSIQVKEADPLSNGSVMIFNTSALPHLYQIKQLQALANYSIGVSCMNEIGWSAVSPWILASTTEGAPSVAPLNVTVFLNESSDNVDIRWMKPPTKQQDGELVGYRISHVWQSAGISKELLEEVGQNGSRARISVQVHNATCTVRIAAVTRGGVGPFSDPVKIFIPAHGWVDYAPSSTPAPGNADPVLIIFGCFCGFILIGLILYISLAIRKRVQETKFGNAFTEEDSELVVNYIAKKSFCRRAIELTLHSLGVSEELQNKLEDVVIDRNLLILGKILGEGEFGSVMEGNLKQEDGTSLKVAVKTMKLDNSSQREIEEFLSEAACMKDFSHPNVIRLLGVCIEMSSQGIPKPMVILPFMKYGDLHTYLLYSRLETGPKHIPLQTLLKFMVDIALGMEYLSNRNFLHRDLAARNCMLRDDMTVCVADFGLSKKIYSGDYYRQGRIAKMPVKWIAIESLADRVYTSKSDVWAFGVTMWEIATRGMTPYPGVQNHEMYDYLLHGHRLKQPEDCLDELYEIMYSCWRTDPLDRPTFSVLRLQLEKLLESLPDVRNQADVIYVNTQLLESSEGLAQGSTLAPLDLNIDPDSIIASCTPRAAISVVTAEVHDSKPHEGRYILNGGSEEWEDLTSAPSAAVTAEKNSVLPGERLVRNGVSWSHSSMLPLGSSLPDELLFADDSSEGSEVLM

Axl = molecular target: T2, Axl (Homo sapiens, UniProt P30530); experiment: LanthaScreen Eu kinase binding assay, Axl; details: Tracer 236
T2 construct: purchased Life Technologies
T2 sequence (P30530 26-894): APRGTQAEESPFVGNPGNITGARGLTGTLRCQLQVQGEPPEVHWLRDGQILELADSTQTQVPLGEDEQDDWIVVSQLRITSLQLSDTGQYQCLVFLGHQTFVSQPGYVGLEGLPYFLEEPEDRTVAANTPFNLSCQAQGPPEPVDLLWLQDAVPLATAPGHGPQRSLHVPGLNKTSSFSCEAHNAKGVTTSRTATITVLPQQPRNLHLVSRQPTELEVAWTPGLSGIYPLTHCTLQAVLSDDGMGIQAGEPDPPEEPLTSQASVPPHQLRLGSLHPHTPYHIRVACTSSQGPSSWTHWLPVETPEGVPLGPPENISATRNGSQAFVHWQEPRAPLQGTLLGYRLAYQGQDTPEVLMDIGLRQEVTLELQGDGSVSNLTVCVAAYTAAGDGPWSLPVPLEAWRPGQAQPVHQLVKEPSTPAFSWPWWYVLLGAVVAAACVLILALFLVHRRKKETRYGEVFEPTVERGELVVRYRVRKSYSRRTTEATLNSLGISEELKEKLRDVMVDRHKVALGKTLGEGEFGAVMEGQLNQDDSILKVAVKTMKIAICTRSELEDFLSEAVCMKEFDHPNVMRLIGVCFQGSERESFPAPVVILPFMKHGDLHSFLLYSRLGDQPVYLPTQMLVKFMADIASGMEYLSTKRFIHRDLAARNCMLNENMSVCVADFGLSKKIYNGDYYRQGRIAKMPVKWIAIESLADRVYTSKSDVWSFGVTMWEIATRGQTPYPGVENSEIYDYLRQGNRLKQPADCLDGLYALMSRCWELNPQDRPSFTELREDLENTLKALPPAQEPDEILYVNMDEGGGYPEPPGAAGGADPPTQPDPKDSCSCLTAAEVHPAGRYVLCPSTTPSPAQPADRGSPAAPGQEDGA

Met = molecular target: T3, Met (Homo sapiens, UniProt P08581); experiment: LanthaScreen Eu kinase binding assay, Met; details: Tracer 236, read-out: cMet kinase binding activity (Kd)
T3 construct: purchased Life Technologies
T3 sequence (P08581 25-1390): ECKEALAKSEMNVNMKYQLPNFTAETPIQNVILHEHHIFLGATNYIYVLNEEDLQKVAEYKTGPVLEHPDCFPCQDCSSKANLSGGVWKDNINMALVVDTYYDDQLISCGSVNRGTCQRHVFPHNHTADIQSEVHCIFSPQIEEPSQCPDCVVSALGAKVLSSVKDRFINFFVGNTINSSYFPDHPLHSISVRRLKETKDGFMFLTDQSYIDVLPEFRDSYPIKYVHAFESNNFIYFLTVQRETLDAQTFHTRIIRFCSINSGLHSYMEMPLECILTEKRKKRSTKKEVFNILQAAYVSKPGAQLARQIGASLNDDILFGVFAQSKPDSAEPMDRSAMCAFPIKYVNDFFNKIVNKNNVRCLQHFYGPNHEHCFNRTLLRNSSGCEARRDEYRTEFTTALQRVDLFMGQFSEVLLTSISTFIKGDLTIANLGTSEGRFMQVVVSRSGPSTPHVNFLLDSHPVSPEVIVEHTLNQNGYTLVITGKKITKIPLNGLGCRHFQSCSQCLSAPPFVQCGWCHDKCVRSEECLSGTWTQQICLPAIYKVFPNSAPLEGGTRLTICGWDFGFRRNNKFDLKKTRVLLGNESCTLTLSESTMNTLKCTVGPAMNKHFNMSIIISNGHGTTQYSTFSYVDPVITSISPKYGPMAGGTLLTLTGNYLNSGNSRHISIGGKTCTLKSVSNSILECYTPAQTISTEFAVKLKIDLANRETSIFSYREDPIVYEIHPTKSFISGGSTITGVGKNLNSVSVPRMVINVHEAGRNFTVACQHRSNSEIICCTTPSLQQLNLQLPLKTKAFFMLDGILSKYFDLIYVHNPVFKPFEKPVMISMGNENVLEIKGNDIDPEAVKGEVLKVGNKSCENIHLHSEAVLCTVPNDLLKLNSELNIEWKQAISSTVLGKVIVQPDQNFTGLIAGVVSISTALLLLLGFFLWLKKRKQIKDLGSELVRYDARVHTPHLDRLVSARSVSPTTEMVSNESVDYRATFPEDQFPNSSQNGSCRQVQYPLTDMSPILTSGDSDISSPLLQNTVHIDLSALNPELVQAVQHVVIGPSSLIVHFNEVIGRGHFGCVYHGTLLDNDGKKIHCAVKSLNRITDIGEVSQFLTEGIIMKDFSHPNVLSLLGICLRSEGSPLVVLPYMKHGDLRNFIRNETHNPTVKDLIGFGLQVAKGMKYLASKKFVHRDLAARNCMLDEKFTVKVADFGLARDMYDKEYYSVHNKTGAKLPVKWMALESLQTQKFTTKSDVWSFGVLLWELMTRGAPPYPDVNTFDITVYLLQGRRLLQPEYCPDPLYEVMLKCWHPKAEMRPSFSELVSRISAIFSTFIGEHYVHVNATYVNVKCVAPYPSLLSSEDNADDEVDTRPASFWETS

TYRO3 = molecular target: T4, TYRO3 (Homo sapiens, UniProt Q06418); experiment: LanthaScreen Eu kinase binding assay, TYRO3; details: Tracer 236
T4 construct: purchased Life Technologies
T4 sequence (Q06418 41-890): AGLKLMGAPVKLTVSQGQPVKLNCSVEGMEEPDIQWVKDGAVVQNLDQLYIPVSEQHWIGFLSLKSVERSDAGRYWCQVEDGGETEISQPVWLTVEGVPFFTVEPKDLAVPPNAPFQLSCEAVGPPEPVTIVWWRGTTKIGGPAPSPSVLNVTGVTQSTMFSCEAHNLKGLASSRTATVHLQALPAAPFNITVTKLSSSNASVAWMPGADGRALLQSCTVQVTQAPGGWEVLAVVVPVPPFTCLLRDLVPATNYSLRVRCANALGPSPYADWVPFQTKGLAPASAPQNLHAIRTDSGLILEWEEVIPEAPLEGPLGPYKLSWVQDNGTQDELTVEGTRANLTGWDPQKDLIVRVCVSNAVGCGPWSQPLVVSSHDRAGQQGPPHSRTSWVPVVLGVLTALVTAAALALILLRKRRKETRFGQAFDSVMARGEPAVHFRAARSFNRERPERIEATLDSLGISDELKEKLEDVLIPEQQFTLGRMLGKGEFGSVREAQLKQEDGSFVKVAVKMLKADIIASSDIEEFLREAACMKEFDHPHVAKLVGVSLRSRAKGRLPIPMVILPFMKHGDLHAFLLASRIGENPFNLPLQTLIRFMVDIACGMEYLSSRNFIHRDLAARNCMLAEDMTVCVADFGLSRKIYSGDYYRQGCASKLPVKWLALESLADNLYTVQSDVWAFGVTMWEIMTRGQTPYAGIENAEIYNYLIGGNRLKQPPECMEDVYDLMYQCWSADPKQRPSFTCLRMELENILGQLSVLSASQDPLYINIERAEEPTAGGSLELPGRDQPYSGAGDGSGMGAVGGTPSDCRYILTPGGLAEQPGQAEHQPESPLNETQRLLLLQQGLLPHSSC

Row | Structure (SMILES) | Kd (Mer) | Kd (Axl) | Kd (Met) | Kd (TYRO3)
1 | CCOc1cnn(-c2ccc(C(C)C)cc2)c1C(=O)Nc1ccc(Oc2ccnc3cc(OC)c(OC)cc23)cn1 [Compound 118] | < 0.1 µM | 0.1 to 1 µM | 0.1 to 1 µM | 0.1 to 1 µM
2 | CCOc1cn(-c2cnc(F)cn2)nc1C(=O)Nc1ccc(Oc2ccnc3cc(OC)c(OC)cc23)cn1 [Compound 171] | < 0.1 µM | < 0.1 µM | < 0.1 µM | 0.1 to 1 µM
3 | CCOc1cn(-c2cnc(C#N)cn2)nc1C(=O)Nc1ccc(Oc2ccnc3cc(OC)c(OC)cc23)cn1 [Compound 54] | ≥ 1 µM | ≥ 1 µM | ≥ 1 µM | ≥ 1 µM
4 | CCOc1cn(-c2cnccc2C(=O)OC)nc1C(=O)Nc1ccc(Oc2ccnc3cc(OC)c(OC)cc23)cn1 [Compound 172] | < 0.1 µM | < 0.1 µM | < 0.1 µM | < 0.1 µM
5 | CCOc1cnn(CC2CCO2)c1C(=O)Nc1ccc(Oc2ccnc3cc(OC)c(OC)cc23)cn1 (stereo not drawn) [Compound 51] | 0.1 to 1 µM | 0.1 to 1 µM | 0.1 to 1 µM | ≥ 1 µM
6 | CCOc1cnn(CC2CCCN(C)C2)c1C(=O)Nc1ccc(Oc2ccnc3cc(OC)c(OC)cc23)cc1F (stereo not drawn) [Compound 216] | 0.1 to 1 µM | 0.1 to 1 µM | 0.1 to 1 µM | ≥ 1 µM
7 | CCOc1cn(-c2cnc(N)nc2)nc1C(=O)Nc1ccc(Oc2ccnc3cc(OC)c(OC)cc23)c(C)c1 [Compound 140] | < 0.1 µM | < 0.1 µM | < 0.1 µM | 0.1 to 1 µM
8 | CCOc1cn(-c2cnc(N)nc2C)nc1C(=O)Nc1ccc(Oc2ccnc3cc(OC)c(OC)cc23)cn1 [Compound 150] | < 0.1 µM | < 0.1 µM | < 0.1 µM | < 0.1 µM
9 | CCOc1cn(-c2cnc(C(F)(F)F)nc2)nc1C(=O)Nc1ccc(Oc2ccnc3cc(OC)c(OC)cc23)cn1 [Compound 144] | < 0.1 µM | < 0.1 µM | 0.1 to 1 µM | 0.1 to 1 µM
10 | CCOc1cn(-c2ccc(NC(C)C)cc2Cl)nc1C(=O)Nc1ccc(Oc2ccnc3cc(OC)c(OC)cc23)cn1 [Compound 24] | < 0.1 µM | 0.1 to 1 µM | 0.1 to 1 µM | ≥ 1 µM
11 | CCOc1cnn(CC)c1C(=O)Nc1ccc(Oc2ccnc3cc(OC)c(OC)cc23)cn1 [Compound 28] | 0.1 to 1 µM | 0.1 to 1 µM | 0.1 to 1 µM | ≥ 1 µM
12 | CCOc1cn(-c2cnc(N)s2)nc1C(=O)Nc1ccc(Oc2ccnc3cc(OC)c(OC)cc23)cn1 [Compound 139] | < 0.1 µM | < 0.1 µM | < 0.1 µM | 0.1 to 1 µM
13 | CCOc1cn(CCC(=O)NC)nc1C(=O)Nc1ccc(Oc2ccnc3cc(OC)c(OC)cc23)cn1 [Compound 67] | < 0.1 µM | 0.1 to 1 µM | 0.1 to 1 µM | 0.1 to 1 µM
14 | CCOc1cn(-c2ncc(F)cc2C#N)nc1C(=O)Nc1ccc(Oc2ccnc3cc(OC)c(OC)cc23)cn1 [Compound 155] | < 0.1 µM | < 0.1 µM | < 0.1 µM | 0.1 to 1 µM
15 | CCOc1cn(-c2cccnc2)nc1C(=O)Nc1ncc(Oc2ccnc3cc(OC)c(OC)cc23)cn1 [Compound 47] | 0.1 to 1 µM | 0.1 to 1 µM | ≥ 1 µM | ≥ 1 µM
16 | CCOc1cn(-c2cnccc2OC)nc1C(=O)Nc1ccc(Oc2ccnc3cc(OC)c(OC)cc23)cn1 [Compound 173] | < 0.1 µM | < 0.1 µM | < 0.1 µM | < 0.1 µM
17 | CCOc1cn(-c2ccc(F)cc2C)nc1C(=O)Nc1cnc(Oc2ccnc3cc(OC)c(OC)cc23)cn1 [Compound 98] | ≥ 1 µM | ≥ 1 µM | ≥ 1 µM | ≥ 1 µM
18 | CCOc1cn(-c2cncc(C#N)n2)nc1C(=O)Nc1ccc(Oc2ccnc3cc(OC)c(OC)cc23)cn1 [Compound 158] | ≥ 1 µM | 0.1 to 1 µM | ≥ 1 µM | ≥ 1 µM
19 | CCOc1cn(-c2cnccc2C#N)nc1C(=O)Nc1ccc(Oc2ccnc3cc(OC)c(OC)cc23)cn1 [Compound 147] | < 0.1 µM | < 0.1 µM | < 0.1 µM | < 0.1 µM
20 | CCOc1cn(CCC(=O)O)nc1C(=O)Nc1ccc(Oc2ccnc3cc(OC)c(OC)cc23)cn1 [Compound 63] | 0.1 to 1 µM | 0.1 to 1 µM | 0.1 to 1 µM | 0.1 to 1 µM
21 | CCOc1cnn(-c2ccc(Cl)cc2C(F)(F)F)c1C(=O)Nc1ccc(Oc2ccnc3cc(OC)c(OC)cc23)cn1 [Compound 103] | 0.1 to 1 µM | 0.1 to 1 µM | 0.1 to 1 µM | 0.1 to 1 µM
22 | CCOc1cnn(-c2cnc(N)nc2)c1C(=O)Nc1ccc(Oc2ccnc3cc(OC(C)C)c(OC)cc23)cc1F [Compound 232] | 0.1 to 1 µM | 0.1 to 1 µM | ≥ 1 µM | ≥ 1 µM
23 | CCOc1cn(CC2CCN(C)CC2)nc1C(=O)Nc1ccc(Oc2ccnc3cc(OC)c(OC)cc23)cc1F [Compound 219] | 0.1 to 1 µM | 0.1 to 1 µM | 0.1 to 1 µM | 0.1 to 1 µM
24 | CCOc1cn(-c2cnc(N)cn2)nc1C(=O)Nc1ccc(Oc2ccnc3cc(OC)c(OC)cc23)cn1 [Compound 136] | < 0.1 µM | < 0.1 µM | < 0.1 µM | < 0.1 µM
25 | CCOc1cn(-c2cncnc2C(C)C)nc1C(=O)Nc1ccc(Oc2ccnc3cc(OC)c(OC)cc23)cn1 [Compound 166] | < 0.1 µM | < 0.1 µM | < 0.1 µM | < 0.1 µM
26 | COCCOc1cnn(-c2cnc(N)nc2)c1C(=O)Nc1ccc(Oc2ccnc3cc(OC)c(OC)cc23)cn1 [Compound 245] | 0.1 to 1 µM | ≥ 1 µM | ≥ 1 µM | ≥ 1 µM
27 | CCOc1cn(-c2cncnc2N2CCCC2)nc1C(=O)Nc1ccc(Oc2ccnc3cc(OC)c(OC)cc23)cn1 [Compound 180] | 0.1 to 1 µM | 0.1 to 1 µM | ≥ 1 µM | ≥ 1 µM
